Laboratory results from the NIST ThermoML archive (doi:10.1021/je201152j).
Numbers after ± are expanded uncertainties.

What was measured:
[1] = 298.15 K, 101.33 kPa, Liquid; for viscosity: Capillary tube (Ostwald / Ubbelohde) method; for speed of sound: Sing-around technique in a fixed-path interferometer; for mass density: Vibrating tube method
[2] = refractive index (Na D-line) (dimensionless); conditions: 298.15 K; 101.33 kPa; Liquid; Standard Abbe refractometry

| Structure (SMILES) | viscosity [1] | speed of sound [1] | mass density [1] | refractive index [2] |
| --- | --- | --- | --- | --- |
| CN1CCCC1=O [N-methylpyrrolidone] | 1.681 ± 0.013 mPa·s | 1545.2 ± 1.9 m/s | 1028.3 ± 0.5 kg/m3 | 1.468 ± 0.0004 |
| CCO [ethanol] | 1.091 ± 0.008 mPa·s | 1144.2 ± 1.6 m/s | 785.21 ± 0.42 kg/m3 | 1.3595 ± 0.0004 |
